# Experimental data as given in patent US8906925B2, “Pyrido[4,3-B]indoles containing rigid moieties” (Medivation Technologies, Inc., priority 2008, dated 2014).
# Assays:
# [1] = target: human dopamine D2L receptor (Homo sapiens, UniProt P14416); test: Dopamine D2L radioligand binding ([3H]Spiperone); conditions: compound at 1 μM; […] [3H]Spiperone; read-out: Inhibition of ligand binding, Dopamine D2L (percent inhibition of specific binding)
# Source text: Non-specific binding was estimated in the presence of […] Haloperidol. Receptor proteins were filtered and washed, the filters were then counted to determine [^3H]Spiperone specifically bound. […] Biochemical assay results are presented as the percent inhibition of specific binding in Table 9.
# [2] = target: histamine receptor H1 (Homo sapiens, UniProt P35367); test: Histamine H1 radioligand binding ([3H]Pyrilamine); conditions: read-out: Histamine Binding (1 μM) H1, percent inhibition of specific binding, 1 μM
# Procedure: To evaluate in radioligand binding assays the activity of compounds of the invention, human recombinant histamine H1 receptor expressed in Chinese hamster ovary (CHO) cells (De Backer, M. D. et al., Biochem. Biophys. Res. Comm. 197(3):1601, 1993) in a modified Tris-HCl buffer (50 mM Tris-HCl, pH 7.4, 2 mM MgCl2, 100 mM NaCl, 250 mM Sucrose) was used. Compounds of the invention were incubated with 1.2 nM [^3H]Pyrilamine for 180 min. at 25° C. Non-specific binding was estimated in the presence of 1 μM pyrilamine. Receptor proteins were filtered and washed, the filters were then counted to determine [^3H]Pyrilamine specifically bound. Compounds were screened at 1 μM or lower, using 1% DMSO as vehicle. Biochemical assay results are presented as the percent inhibition of specific binding in Table 8.
# Chain of human dopamine D2L receptor (P14416 whole entry): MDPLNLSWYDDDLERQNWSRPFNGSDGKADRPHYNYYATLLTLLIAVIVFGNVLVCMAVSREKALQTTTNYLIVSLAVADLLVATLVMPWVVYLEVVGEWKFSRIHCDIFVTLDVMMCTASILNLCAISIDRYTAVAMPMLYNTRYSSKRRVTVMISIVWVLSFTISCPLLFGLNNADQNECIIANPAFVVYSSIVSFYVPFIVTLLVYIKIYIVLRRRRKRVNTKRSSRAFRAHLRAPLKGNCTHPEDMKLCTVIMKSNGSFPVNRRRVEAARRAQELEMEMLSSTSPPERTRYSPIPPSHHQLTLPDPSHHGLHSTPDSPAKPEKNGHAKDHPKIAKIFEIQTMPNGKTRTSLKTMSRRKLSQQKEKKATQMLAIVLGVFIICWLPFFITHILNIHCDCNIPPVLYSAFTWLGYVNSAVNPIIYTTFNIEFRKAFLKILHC
# Chain of histamine receptor H1 (P35367 whole entry): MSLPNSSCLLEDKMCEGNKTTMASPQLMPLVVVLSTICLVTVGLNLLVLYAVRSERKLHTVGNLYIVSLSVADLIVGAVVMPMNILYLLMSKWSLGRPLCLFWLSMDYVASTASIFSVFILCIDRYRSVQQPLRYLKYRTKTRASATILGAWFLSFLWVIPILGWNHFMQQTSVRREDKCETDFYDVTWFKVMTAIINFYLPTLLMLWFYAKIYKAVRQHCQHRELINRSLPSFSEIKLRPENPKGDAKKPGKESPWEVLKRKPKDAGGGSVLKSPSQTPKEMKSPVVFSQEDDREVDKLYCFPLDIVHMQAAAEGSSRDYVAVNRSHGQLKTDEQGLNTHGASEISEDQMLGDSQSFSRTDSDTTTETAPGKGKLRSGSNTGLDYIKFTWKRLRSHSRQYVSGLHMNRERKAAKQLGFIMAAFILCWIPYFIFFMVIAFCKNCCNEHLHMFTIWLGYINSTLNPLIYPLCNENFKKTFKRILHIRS
Structure (SMILES),inhibition at 1 µM [1],inhibition at 1 µM [2]
"Cc1ccc2c(c1)c1c(n2C#Cc2ccncn2)CCN(C)C1 [Compound No. 499, 2,8-dimethyl-5-(pyrimidin-4-ylethynyl)-2,3,4,5-tetrahydro-1H-pyrido[4,3-b]indole]",18%,26%
"C/C(=C/n1c2c(c3cc(Cl)ccc31)CN(C)CC2)c1ccncc1 [compound 384, (Z)-8-chloro-2-methyl-5-(2-(pyridin-4-yl)prop-1-enyl)-2,3,4,5-tetrahydro-1H-pyrido[4,3-b]indole]",91%,66%
"C/C(=C\n1c2c(c3cc(Cl)ccc31)CN(C)CC2)c1cnc(C)cn1 [compound 385, (E)-8-chloro-2-methyl-5-(2-(5-methylpyrazin-2-yl)prop-1-enyl)-2,3,4,5-tetrahydro-1H-pyrido[4,3-b]indole]",51%,68%
"C/C(=C\n1c2c(c3cc(C)ccc31)CN(C)CC2)c1cnc(C)cn1 [compound 386, (E)-2,8-dimethyl-5-(2-(5-methylpyrazin-2-yl)prop-1-enyl)-2,3,4,5-tetrahydro-1H-pyrido[4,3-b]indole]",25%,8%
"C/C(=C\n1c2c(c3cc(C)ccc31)CN(C)CC2)c1ccsc1 [compound 387, (E)-2,8-dimethyl-5-(2-(thiophen-3-yl)prop-1-enyl)-2,3,4,5-tetrahydro-1H-pyrido[4,3-b]indole]",99%,84%
"C/C(=C\n1c2c(c3cc(Cl)ccc31)CN(C)CC2)c1ccsc1 [compound 388, (E)-8-chloro-2-methyl-5-(2-(thiophen-3-yl)prop-1-enyl)-2,3,4,5-tetrahydro-1H-pyrido[4,3-b]indole]",99%,100%
"C/C(=C\n1c2c(c3cc(C)ccc31)CN(C)[C@@H](C)C2)c1ccncc1 [compound 389, (S,E)-2,3,8-trimethyl-5-(2-(pyridin-4-yl)prop-1-enyl)-2,3,4,5-tetrahydro-1H-pyrido[4,3-b]indole]",49%,39%
"C/C(=C\n1c2c(c3cc(C)ccc31)CN(C)[C@H](C)C2)c1ccncc1 [compound 390, (R,E)-2,3,8-trimethyl-5-(2-(pyridin-4-yl)prop-1-enyl)-2,3,4,5-tetrahydro-1H-pyrido[4,3-b]indole]",97%,49%

# Further lines, results first:
inhibition at 1 µM [1],inhibition at 1 µM [2],Structure (SMILES)
72%,84%,"C/C(=C\n1c2c(c3cc(Cl)ccc31)CN(C)[C@@H](C)C2)c1ccncc1 [compound 391, (S,E)-8-chloro-2,3-dimethyl-5-(2-(pyridin-4-yl)prop-1-enyl)-2,3,4,5-tetrahydro-1H-pyrido[4,3-b]indole]"
99%,84%,"C/C(=C\n1c2c(c3cc(Cl)ccc31)CN(C)[C@H](C)C2)c1ccncc1 [compound 392, (R,E)-8-chloro-2,3-dimethyl-5-(2-(pyridin-4-yl)prop-1-enyl)-2,3,4,5-tetrahydro-1H-pyrido[4,3-b]indole]"
99%,69%,"C/C(=C\n1c2c(c3cc(Cl)ccc31)CN(C)CC2)c1cc(C)nc(C)c1 [compound 393, (E)-8-chloro-5-(2-(2,6-dimethylpyridin-4-yl)prop-1-enyl)-2-methyl-2,3,4,5-tetrahydro-1H-pyrido[4,3-b]indole]"
99%,75%,"C/C(=C\n1c2c(c3cc(Cl)ccc31)CN(C)CC2)c1ccnc(C)c1 [compound 394, (E)-8-chloro-2-methyl-5-(2-(2-methylpyridin-4-yl)prop-1-enyl)-2,3,4,5-tetrahydro-1H-pyrido[4,3-b]indole]"
99%,102%,"C/C(=C\n1c2c(c3cc(Cl)ccc31)CN(CCCC(O)c1ccc(F)cc1)CC2)c1ccncc1 (centres unmarked) [compound 395, (E)-4-(8-chloro-5-(2-(pyridin-4-yl)prop-1-enyl)-3,4-dihydro-1H-pyrido[4,3-b]indol-2(5H)-yl)-1-(4-fluorophenyl)butan-1-ol]"
